Test [1] concerns the target T1, catalytic domain of human Bub1 (amino acids 704-1085) (Homo sapiens, UniProt O43683).
T1 construct: catalytic domain of human Bub1 (amino acids 704-1085); His6 (N); made in house; host or cells: Hi5 insect cells
Put plainly: Bub1 kinase assay (TR-FRET). In kind it is biochemical. How it is done:
To this end, 100-fold concentrated compound solutions (in DMSO) were previously prepared by serial dilution (1:3.4) of 2 mM stocks in a clear low volume 384-well source microtiter plate (Greiner Bio-One, Frickenhausen, Germany), from which 50 nL of compounds were transferred into a black low volume test microtiter plate from the same supplier. […] The resulting mixture (5 μL final volume) was incubated at 22° C. during 60 min., and the reaction was stopped by the addition of 5 μL of an aqueous EDTA-solution (50 mM EDTA, in 100 mM HEPES pH 7.5 and 0.2% (w/v) bovine serum albumin) which also contained the TR-FRET detection reagents (0.2 μM streptavidin-XL665 [Cisbio Bioassays, Codolet, France] and 1 nM anti-phoshoSerine antibody [Merck Millipore, cat. #35-001] and 0.4 nM LANCE EU-W1024 labeled anti-mouse IgG antibody [Perkin-Elmer, product no. AD0077, alternatively a Terbium-cryptate-labeled anti-mouse IgG antibody from Cisbio Bioassays can be used]). The stopped reaction mixture was further incubated 1 h at 22° C. in order to allow the formation of complexes between peptides and detection reagents. Subsequently, the amount of product was evaluated by measurement of the resonance energy transfer from the Eu-chelate-antibody complex recognizing the Phosphoserine residue to the streptavidin-XL665 bound to the biotin moiety of the peptide.

The subject of test [2] is HeLa cell line. Put plainly: Proliferation assay (HeLa cell line). Format: cell-based. The conditions noted are these: Homo sapiens, 96 h, read-out: Biological Assay 2: Proliferation assay (HeLa cell line) median IC50. The method, then:
Cultivated tumor cells (cells were ordered from ATCC, except HeLa-MaTu and HeLa-MaTu-ADR, which were ordered from EPO-GmbH, Berlin) were plated at a density of 1000 to 5000 cells/well, depending on the growth rate of the respective cell line, in a 96-well multititer plate in 200 μL of their respective growth medium supplemented 10% fetal calf serum. After 24 hours, the cells of one plate (zero-point plate) were stained with crystal violet (see below), while the medium of the other plates was replaced by fresh culture medium (200 μL), to which the test substances were added in various concentrations (0 μM, as well as in the range of 0.001-10 μM; the final concentration of the solvent dimethyl sulfoxide was 0.5%). The cells were incubated for 4 days in the presence of test substances. Cell proliferation was determined by staining the cells with crystal violet: the cells were fixed by adding 20 μL/measuring point of an 11% glutaric aldehyde solution for 15 minutes at room temperature. After three washing cycles of the fixed cells with water, the plates were dried at room temperature. The cells were stained by adding 100 μL/measuring point of a 0.1% crystal violet solution (pH 3.0). After three washing cycles of the stained cells with water, the plates were dried at room temperature. The dye was dissolved by adding 100 μl/measuring point of a 10% acetic acid solution. Absorbtion was determined by photometry at a wavelength of 595 nm. The change of cell number, in percent, was calculated by normalization of the measured values to the absorbtion values of the zero-point plate (=0%) and the absorbtion of the untreated (0 μm) cells (=100%). The IC50 values were determined by means of a 4 parameter fit.

The mark [3] stands for this setting: 10 μM ATP, 1 μM peptide substrate, TR-FRET, read-out: Biological Assay 1: Bub1 kinase assay median IC50.
Setting [4] is: 4 days incubation, crystal violet staining.

The text below walks through data of patent US20160145267A1, “HETEROARYL SUBSTITUTED PYRAZOLES” (BAYER PHARMA AKTIENGESELLSCHAFT, priority 2013, published 2016).

Where two headings read alike, the source gives them in different places. Bounds are passed on as bounds.

T1 sequence (O43683 704-1085): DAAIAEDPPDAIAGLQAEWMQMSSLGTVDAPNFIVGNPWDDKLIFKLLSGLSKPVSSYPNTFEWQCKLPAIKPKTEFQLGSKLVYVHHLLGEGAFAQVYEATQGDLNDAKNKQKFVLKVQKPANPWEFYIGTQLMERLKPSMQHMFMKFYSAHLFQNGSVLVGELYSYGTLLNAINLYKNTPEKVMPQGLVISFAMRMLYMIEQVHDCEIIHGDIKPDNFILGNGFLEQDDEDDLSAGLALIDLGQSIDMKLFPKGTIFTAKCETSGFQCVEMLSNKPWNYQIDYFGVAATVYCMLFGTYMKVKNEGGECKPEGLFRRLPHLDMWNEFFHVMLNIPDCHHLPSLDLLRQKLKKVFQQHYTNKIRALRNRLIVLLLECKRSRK

As for `CCOc1cc(F)c(Cn2nc(-c3nc4c(c(Nc5ccncc5)n3)OCC(=O)N4)c(C)c2C2CC2)c(F)c1` [Example 2-1-32, 2-[5-cyclopropyl-1-(4-ethoxy-2,6-difluorobenzyl)-4-methyl-1H-pyrazol-3-yl]-4-(pyridin-4-ylamino)-6H-pyrimido[5,4-b][1,4]oxazin-7(8H)-one], the results for the IC50 in test [1] (setting [3]) and in test [2] were 0.012 µM and more than 10 µM, respectively. The matching figures for `CCOc1cc(F)c(Cn2nc(-c3nc(Nc4ccncc4)c(NS(=O)(=O)C(F)(F)F)c(Nc4ccncc4)n3)c(C)c2C2CC2)c(F)c1` [Example 2-2-18, N-{2-[5-cyclopropyl-1-(4-ethoxy-2,6-difluorobenzyl)-4-methyl-1H-pyrazol-3-yl]-4,6-bis(pyridin-4-ylamino)pyrimidin-5-yl}-1,1,1-trifluoromethanesulfonamide]: 13 µM and 3 µM. Turning to `CCOc1cc(F)c(Cn2nc(-c3nc(N)c(N4CCOCC4)c(Nc4ccncc4)n3)c(C)c2C2CC2)c(F)c1` [Example 2-1-6, 2-[5-cyclopropyl-1-(4-ethoxy-2,6-difluorobenzyl)-4-methyl-1H-pyrazol-3-yl]-5-(morpholin-4-yl)-N-(pyridin-4-yl)pyrimidine-4,6-diamine], the results for the IC50 in test [1] (setting [3]) and in test [2] were 0.012 µM and 5.2 µM, respectively. In the case of `CCOc1cc(F)c(Cn2nc(-c3nc(N)cc(Nc4ccncn4)n3)c(C)c2C2CC2)c(F)c1` [Example 2-1-3, 2-[5-cyclopropyl-1-(4-ethoxy-2,6-difluorobenzyl)-4-methyl-1H-pyrazol-3-yl]-N-(pyrimidin-4-yl)pyrimidine-4,6-diamine], the IC50 is 0.0063 µM in test [1] (setting [3]) and 3.1 µM in test [2].

For the molecule `CCOc1cc(F)c(Cn2nc(-c3nc(NC(=O)NC4CCCCC4)c(OC)c(Nc4ccncc4)n3)c(C)c2C2CC2)c(F)c1` [Example 2-1-16, 1-cyclohexyl-3-{2-[5-cyclopropyl-1-(4-ethoxy-2,6-difluorobenzyl)-4-methyl-1H-pyrazol-3-yl]-5-methoxy-6-(pyridin-4-ylamino)pyrimidin-4-yl}urea], the results for the IC50 in test [1] and in test [2] (setting [4]) were 0.34 µM and 3.3 µM, respectively. Taken in the same sequence, the figures for `CCOc1cc(F)c(Cn2nc(-c3nc(N)c(NC(=O)COC)c(Nc4ccncn4)n3)c(C)c2C2CC2)c(F)c1` [Example 2-1-28, N-{4-amino-2-[5-cyclopropyl-1-(4-ethoxy-2,6-difluorobenzyl)-4-methyl-1H-pyrazol-3-yl]-6-(pyrimidin-4-ylamino)pyrimidin-5-yl}-2-methoxyacetamide] were 0.013 µM and 10 µM. With `CCNC(=O)Nc1nc(-c2nn(Cc3c(F)cc(OCC)cc3F)c(C3CC3)c2C)nc(Nc2ccncn2)c1N1CCOCC1` [Example 2-1-19, 1-{2-[5-cyclopropyl-1-(4-ethoxy-2,6-difluorobenzyl)-4-methyl-1H-pyrazol-3-yl]-5-(morpholin-4-yl)-6-(pyrimidin-4-ylamino)pyrimidin-4-yl}-3-ethylurea], the figures for the IC50 in test [1] (setting [3]) and in test [2] were 2.1 µM and 5.6 µM, respectively. Taken in the same sequence, the figures for `CCNC(=O)Nc1nc(-c2nn(Cc3c(F)cc(OCC)cc3F)c(C3CC3)c2C)nc(Nc2ccncc2)c1OC` [Example 2-1-14, 1-{2-[5-cyclopropyl-1-(4-ethoxy-2,6-difluorobenzyl)-4-methyl-1H-pyrazol-3-yl]-5-methoxy-6-(pyridin-4-ylamino)pyrimidin-4-yl}-3-ethylurea] were 0.31 µM and 3.8 µM. The matching figures for `CCOc1cc(F)c(Cn2nc(-c3nc(Nc4ccncc4)c(NC(=O)COC)c(Nc4ccncc4)n3)c(C)c2C2CC2)c(F)c1` [Example 2-2-14, N-{2-[5-cyclopropyl-1-(4-ethoxy-2,6-difluorobenzyl)-4-methyl-1H-pyrazol-3-yl]-4,6-bis(pyridin-4-ylamino)pyrimidin-5-yl}-2-methoxyacetamide]: 0.35 µM and 2.8 µM. Take `CCNC(=O)Nc1nc(-c2nn(Cc3c(F)cc(OCC)cc3F)c(C3CC3)c2C)nc(Nc2ccncc2)c1N1CCOCC1` [Example 2-1-18, 1-{2-[5-cyclopropyl-1-(4-ethoxy-2,6-difluorobenzyl)-4-methyl-1H-pyrazol-3-yl]-5-(morpholin-4-yl)-6-(pyridin-4-ylamino)pyrimidin-4-yl}-3-ethylurea]: the IC50 stood at 0.29 µM in test [1] and 10 µM in test [2] (setting [4]).

In the case of `CCOc1cc(F)c(Cn2nc(-c3nc(NC(=O)NC4CCCCC4)cc(Nc4ccncn4)n3)c(C)c2C2CC2)c(F)c1` [Example 2-1-13, 1-cyclohexyl-3-{2-[5-cyclopropyl-1-(4-ethoxy-2,6-difluorobenzyl)-4-methyl-1H-pyrazol-3-yl]-6-(pyrimidin-4-ylamino)pyrimidin-4-yl}urea], the IC50 in test [1] (setting [3]) turned out to be 0.55 µM.

For `CCNC(=O)Nc1c(Nc2ccncc2)nc(-c2nn(Cc3c(F)cc(OCC)cc3F)c(C3CC3)c2C)nc1Nc1ccncc1` [Example 2-2-16, 1-{2-[5-cyclopropyl-1-(4-ethoxy-2,6-difluorobenzyl)-4-methyl-1H-pyrazol-3-yl]-4,6-bis(pyridin-4-ylamino)pyrimidin-5-yl}-3-ethylurea], the figures for the IC50 in test [1] (setting [3]) and in test [2] were 0.15 µM and 2.2 µM, respectively. `CCOc1cc(F)c(Cn2nc(-c3nc(Nc4ccncn4)c(N4CCOCC4)c(Nc4ccncn4)n3)c(C)c2C2CC2)c(F)c1` [Example 2-2-7, 2-[5-cyclopropyl-1-(4-ethoxy-2,6-difluorobenzyl)-4-methyl-1H-pyrazol-3-yl]-5-(morpholin-4-yl)-N,N′-di(pyrimidin-4-yl)pyrimidine-4,6-diamine] had an IC50 in test [1] of 0.14 µM.

For `CCOc1cc(F)c(Cn2nc(-c3nc(Nc4ccncc4)c(OC)c(Nc4ccncc4)n3)c(C)c2C2CC2)c(F)c1` [Example 2-2-4, 2-[5-cyclopropyl-1-(4-ethoxy-2,6-difluorobenzyl)-4-methyl-1H-pyrazol-3-yl]-5-methoxy-N,N′-di(pyridin-4-yl)pyrimidine-4,6-diamine], the IC50 in test [1] (setting [3]) came to 0.31 µM. The molecule `CCOc1cc(F)c(Cn2nc(-c3nc(Nc4ccnc(OC)c4)cc(Nc4ccnc(OC)c4)n3)c(C)c2C2CC2)c(F)c1` [Example 2-2-2, 2-[5-cyclopropyl-1-(4-ethoxy-2,6-difluorobenzyl)-4-methyl-1H-pyrazol-3-yl]-N,N′-bis(2-methoxypyridin-4-yl)pyrimidine-4,6-diamine] displayed an IC50 in test [1] not below 20 µM. In the case of `CCOc1cc(F)c(Cn2nc(-c3nc(NC(=O)NC4CCCCC4)cc(Nc4ccncc4)n3)c(C)c2C2CC2)c(F)c1` [Example 2-1-12, 1-cyclohexyl-3-{2-[5-cyclopropyl-1-(4-ethoxy-2,6-difluorobenzyl)-4-methyl-1H-pyrazol-3-yl]-6-(pyridin-4-ylamino)pyrimidin-4-yl}urea], in test [1] (setting [3]), the IC50 is 0.24 µM. Take `CCOc1cc(F)c(Cn2nc(-c3nc(Nc4ccncc4)nc(Nc4ccncc4)n3)c(C)c2C2CC2)c(F)c1` [Example 2-2-8, 6-[5-cyclopropyl-1-(4-ethoxy-2,6-difluorobenzyl)-4-methyl-1H-pyrazol-3-yl]-N,N′-di(pyridin-4-yl)-1,3,5-triazine-2,4-diamine]: the IC50 in test [1] was 0.067 µM. In the case of `CCNC(=O)Nc1nc(-c2nn(Cc3c(F)cc(OCC)cc3F)c(C3CC3)c2C)nc(Nc2ccncn2)c1OC` [Example 2-1-15, 1-{2-[5-cyclopropyl-1-(4-ethoxy-2,6-difluorobenzyl)-4-methyl-1H-pyrazol-3-yl]-5-methoxy-6-(pyrimidin-4-ylamino)pyrimidin-4-yl}-3-ethylurea], in test [1] (setting [3]), the IC50 is 0.34 µM.

`CCOc1cc(F)c(Cn2nc(-c3nc(Nc4ccnnc4)nc(Nc4ccnnc4)n3)c(C)c2C2CC2)c(F)c1` [Example 2-2-11, 6-[5-cyclopropyl-1-(4-ethoxy-2,6-difluorobenzyl)-4-methyl-1H-pyrazol-3-yl]-N,N′-di(pyridazin-4-yl)-1,3,5-triazine-2,4-diamine]: in test [1], the IC50 was found to be 5.5 µM.
